Laboratory results as given in US9187472B2 (AbbVie Inc., priority 2012, dated 2015).

How the values were obtained:
[1] = tested on: PC3 cells; assay: NAMPT Cell Proliferation Assay; assay type: cell-based; conditions: Homo sapiens, PC-3, 120 h, 5 days incubation, cell viability by Cell Titer Glo
Procedure, shortened: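 IC50 values derive from sigmoidal dose-response fits of percent inhibition of PC3 viability, measured by luminescence after 5 days of compound treatment. Cells (500/well, RPMI containing 10% heat-inactivated FBS) are allowed to attach overnight, and compounds are tested at 10-fold dilutions between 10 μM and 1×10^−5 μM.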

[2] = biological target: NAMPT (human, recombinant, C-terminally His-tagged) (Homo sapiens, UniProt P43490); assay: Time-Resolved Fluorescence Resonance Energy Transfer (TR-FRET) Binding Assay of NAMPT; conditions: without substrates; 6.8 nM NAMPT, 200 nM probe, 3 hours equilibration
NAMPT (human, recombinant, C-terminally His-tagged), sequence (P43490 whole entry): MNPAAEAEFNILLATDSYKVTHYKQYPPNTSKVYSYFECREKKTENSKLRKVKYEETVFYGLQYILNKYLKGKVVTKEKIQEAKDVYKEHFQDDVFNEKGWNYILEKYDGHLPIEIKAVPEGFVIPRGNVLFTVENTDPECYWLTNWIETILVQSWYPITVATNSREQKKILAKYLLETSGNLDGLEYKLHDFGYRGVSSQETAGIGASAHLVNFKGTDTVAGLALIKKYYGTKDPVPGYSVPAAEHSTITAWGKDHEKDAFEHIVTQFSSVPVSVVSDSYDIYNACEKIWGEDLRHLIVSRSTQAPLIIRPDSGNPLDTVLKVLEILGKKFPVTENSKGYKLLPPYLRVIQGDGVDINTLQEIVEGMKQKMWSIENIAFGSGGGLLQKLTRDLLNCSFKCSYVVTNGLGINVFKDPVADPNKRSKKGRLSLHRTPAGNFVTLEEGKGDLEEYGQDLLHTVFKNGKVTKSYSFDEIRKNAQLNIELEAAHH
Procedure, shortened: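 In a displacement format, the nicotinamide-site tracer at 200 nM competed with test compound for 6.8 nM enzyme detected via 1 nM terbium anti-His antibody; incubation lasted 3 hours at room temperature in 50 mM HEPES pH 7.5, 100 mM NaCl. Normalized 520/495 nm emission ratios gave IC50 values.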

[3] = biological target: NAMPT (Homo sapiens, UniProt P43490); assay: TR-FRET Binding Assay of NAMPT with PRPP; conditions: with 200 μM PRPP and 2.5 mM ATP; 2 nM NAMPT, 2 nM probe, 16 hours equilibration
NAMPT, sequence (P43490 whole entry): as above
Procedure, shortened: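 Substrate-containing variant: 200 μM PRPP plus 2.5 mM ATP are added to 2 nM NAMPT and 2 nM probe, with a 16-hour incubation ahead of TR-FRET reading.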

For Cn1cccc1C(=O)N1CC(c2ccc(C(=O)NCc3ccn4ccnc4c3)cc2)C1 [Example 656, N-(imidazo[1,2-a]pyridin-7-ylmethyl)-4-{1-[(1-methyl-1H-pyrrol-2-yl)carbonyl]azetidin-3-yl}benzamide], the IC50 [1] was 38.5 nM, the IC50 [2] was 218 nM and the IC50 [3] was 0.738 nM.
Work on O=C(NCc1ccn2ccnc2c1)c1ccc(C2CN(C(=O)CC3CCCCC3)C2)cc1 [Example 657, 4-[1-(cyclohexylacetyl)azetidin-3-yl]-N-(imidazo[1,2-a]pyridin-7-ylmethyl)benzamide] yielded an IC50 [1] of 36 nM, an IC50 [2] of 232 nM and an IC50 [3] of 0.589 nM.
O=C(NCc1ccn2ccnc2c1)c1ccc(C2CN(C(=O)c3ccncc3)C2)cc1 [Example 658, N-(imidazo[1,2-a]pyridin-7-ylmethyl)-4-[1-(pyridin-4-ylcarbonyl)azetidin-3-yl]benzamide] was tested, and the IC50 [1] was 60.8 nM, the IC50 [2] was 137 nM and the IC50 [3] was 0.76 nM.
With O=C(NCc1ccn2ccnc2c1)c1ccc(C2CN(C(=O)c3cccnc3)C2)cc1 [Example 659, N-(imidazo[1,2-a]pyridin-7-ylmethyl)-4-[1-(pyridin-3-ylcarbonyl)azetidin-3-yl]benzamide] the IC50 [1] was 223 nM, the IC50 [2] was 646 nM and the IC50 [3] was 0.71 nM.
With O=C(NCc1ccn2ccnc2c1)c1ccc(C2CN(C(=O)C3CCCCC3)C2)cc1 [Example 660, 4-[1-(cyclohexylcarbonyl)azetidin-3-yl]-N-(imidazo[1,2-a]pyridin-7-ylmethyl)benzamide] the IC50 [1] was 70.9 nM, the IC50 [2] was 282 nM and the IC50 [3] was 0.693 nM.
O=C(NCc1ccn2ccnc2c1)c1ccc(C2CN(C(=O)c3ccccn3)C2)cc1 [Example 661, N-(imidazo[1,2-a]pyridin-7-ylmethyl)-4-[1-(pyridin-2-ylcarbonyl)azetidin-3-yl]benzamide] was tested, and the IC50 [1] was 67.2 nM, the IC50 [2] was 462 nM and the IC50 [3] was 0.641 nM.
With O=C(NCc1ccn2ccnc2c1)c1ccc(C2CN(C(=O)c3ccoc3)C2)cc1 [Example 662, 4-[1-(furan-3-ylcarbonyl)azetidin-3-yl]-N-(imidazo[1,2-a]pyridin-7-ylmethyl)benzamide] the IC50 [1] was 93.4 nM, the IC50 [2] was 318 nM and the IC50 [3] was 0.671 nM.
O=C(NCc1ccn2ccnc2c1)c1ccc(C2CN(C(=O)c3ccncn3)C2)cc1 [Example 663, N-(imidazo[1,2-a]pyridin-7-ylmethyl)-4-[1-(pyrimidin-4-ylcarbonyl)azetidin-3-yl]benzamide] gave an IC50 [1] of 90 nM, an IC50 [2] of 653 nM and an IC50 [3] of 1.07 nM.
O=C(NCc1ccn2ccnc2c1)c1ccc(C2CN(C(=O)c3nccs3)C2)cc1 [Example 664, N-(imidazo[1,2-a]pyridin-7-ylmethyl)-4-[1-(1,3-thiazol-2-ylcarbonyl)azetidin-3-yl]benzamide] showed an IC50 [1] of 71.5 nM, an IC50 [2] of 214 nM and an IC50 [3] of 0.733 nM.
Compound CC1(C(=O)N2CC(c3ccc(C(=O)NCc4ccn5ccnc5c4)cc3)C2)CCCCC1 [Example 665, N-(imidazo[1,2-a]pyridin-7-ylmethyl)-4-{1-[(1-methylcyclohexyl)carbonyl]azetidin-3-yl}benzamide] has an IC50 [1] of 7.28 nM, an IC50 [2] of 123 nM and an IC50 [3] of 0.357 nM.
CC(C)C(C)C(=O)N1CC(c2ccc(C(=O)NCc3ccn4ccnc4c3)cc2)C1 (stereo not drawn) [Example 666, 4-[1-(2,3-dimethylbutanoyl)azetidin-3-yl]-N-(imidazo[1,2-a]pyridin-7-ylmethyl)benzamide] gave an IC50 [1] of 5.18 nM, an IC50 [2] of 193 nM and an IC50 [3] of 0.855 nM.
Compound Cc1cccc(C(=O)N2CC(c3ccc(C(=O)NCc4ccn5ccnc5c4)cc3)C2)c1 [Example 667, N-(imidazo[1,2-a]pyridin-7-ylmethyl)-4-[1-(3-methylbenzoyl)azetidin-3-yl]benzamide] has an IC50 [1] of 45.8 nM, an IC50 [2] of 226 nM and an IC50 [3] of 0.798 nM.
Work on O=C(NCc1ccn2ccnc2c1)c1ccc(C2CN(C(=O)c3ccsc3)C2)cc1 [Example 668, N-(imidazo[1,2-a]pyridin-7-ylmethyl)-4-[1-(thiophen-3-ylcarbonyl)azetidin-3-yl]benzamide] yielded an IC50 [1] of 80.3 nM, an IC50 [2] of 263 nM and an IC50 [3] of 1.1 nM.
Work on O=C(NCc1ccn2ccnc2c1)c1ccc(C2CN(C(=O)c3cccc(OC(F)(F)F)c3)C2)cc1 [Example 669, N-(imidazo[1,2-a]pyridin-7-ylmethyl)-4-{1-[3-(trifluoromethoxy)benzoyl]azetidin-3-yl}benzamide] yielded an IC50 [1] of 686 nM, an IC50 [2] of 407 nM and an IC50 [3] of 0.807 nM.
Compound Cc1ccsc1C(=O)N1CC(c2ccc(C(=O)NCc3ccn4ccnc4c3)cc2)C1 [Example 670, N-(imidazo[1,2-a]pyridin-7-ylmethyl)-4-{1-[(3-methylthiophen-2-yl)carbonyl]azetidin-3-yl}benzamide] has an IC50 [1] of 9.92 nM, an IC50 [2] of 62 nM and an IC50 [3] of 0.545 nM.
O=C(NCc1ccn2ccnc2c1)c1ccc(C2CN(C(=O)c3cccc(C(F)(F)F)c3)C2)cc1 [Example 671, N-(imidazo[1,2-a]pyridin-7-ylmethyl)-4-{1-[3-(trifluoromethyl)benzoyl]azetidin-3-yl}benzamide] was tested, and the IC50 [1] was 684 nM, the IC50 [2] was 611 nM and the IC50 [3] was 1.06 nM.
With CC(C)S(=O)(=O)N1CCC(c2ccc(C(=O)NCc3ccn4ccnc4c3)cc2)C1 (stereo not drawn) [Example 672, N-(imidazo[1,2-a]pyridin-7-ylmethyl)-4-[1-(propan-2-ylsulfonyl)pyrrolidin-3-yl]benzamide] the IC50 [1] was 80 nM, the IC50 [2] was 313 nM and the IC50 [3] was 0.504 nM.
For COCCn1cc(-c2ccc(NC(=O)NCc3ccn4ccnc4c3)cc2)cn1 [Example 673, 1-(imidazo[1,2-a]pyridin-7-ylmethyl)-3-{4-[1-(2-methoxyethyl)-1H-pyrazol-4-yl]phenyl}urea], the IC50 [1] was 122 nM, the IC50 [2] was 452 nM and the IC50 [3] was 0.697 nM.
Compound O=C(NCc1ccn2ccnc2c1)Nc1ccc(-c2cnn(CC3CCCO3)c2)cc1 (stereo not drawn) [Example 674, 1-(imidazo[1,2-a]pyridin-7-ylmethyl)-3-{4-[1-(tetrahydrofuran-2-ylmethyl)-1H-pyrazol-4-yl]phenyl}urea] has an IC50 [1] of 32.4 nM, an IC50 [2] of 297 nM and an IC50 [3] of 0.535 nM.
O=C(NCc1ccn2ccnc2c1)Nc1ccc(-c2cnn(CC3CCOCC3)c2)cc1 [Example 675, 1-(imidazo[1,2-a]pyridin-7-ylmethyl)-3-{4-[1-(tetrahydro-2H-pyran-4-ylmethyl)-1H-pyrazol-4-yl]phenyl}urea] was tested, and the IC50 [1] was 69.8 nM, the IC50 [2] was 376 nM and the IC50 [3] was 2.07 nM.
O=C(NCc1ccc2ncnn2c1)c1ccc(-c2cnn(CC3COCCO3)c2)s1 (stereo not drawn) [Example 676, 5-[1-(1,4-dioxan-2-ylmethyl)-1H-pyrazol-4-yl]-N-([1,2,4]triazolo[1,5-a]pyridin-6-ylmethyl)thiophene-2-carboxamide] showed an IC50 [1] of 78.7 nM, an IC50 [2] of 126 nM and an IC50 [3] of 6.98 nM.
Compound O=C(NCc1ccn2ccnc2c1)c1ccc(C2CCN(C(=O)c3ccccc3F)CC2)s1 [Example 677, 5-[1-(2-fluorobenzoyl)piperidin-4-yl]-N-(imidazo[1,2-a]pyridin-7-ylmethyl)thiophene-2-carboxamide] has an IC50 [1] of 0.613 nM, an IC50 [2] of 1.77 nM and an IC50 [3] of 0.796 nM.
Work on CC(C)(C)OC(=O)N1CCC(c2ccc(C(=O)NCc3cn4ccnc4cn3)cc2)CC1 [Example 678, tert-butyl 4-{4-[(imidazo[1,2-a]pyrazin-6-ylmethyl)carbamoyl]phenyl}piperidine-1-carboxylate] yielded an IC50 [1] of 15.1 nM, an IC50 [2] of 41.2 nM and an IC50 [3] of 0.23 nM.
In the case of O=C(CC1CCCC1)Nc1ccc(C(=O)NCc2cn3ccnc3cn2)cc1 [Example 679, 4-[(cyclopentylacetyl)amino]-N-(imidazo[1,2-a]pyrazin-6-ylmethyl)benzamide], the IC50 [1] is reported as 10.9 nM, the IC50 [2] is reported as 22.8 nM and the IC50 [3] is reported as 1.74 nM.
CC(C)(C)OC(=O)N1CCC(c2ccc(NC(=O)NCc3cn4ccnc4cn3)cc2)CC1 [Example 680, tert-butyl 4-(4-{[(imidazo[1,2-a]pyrazin-6-ylmethyl)carbamoyl]amino}phenyl)piperidine-1-carboxylate] was tested, and the IC50 [1] was 629 nM, the IC50 [2] was 37.1 nM and the IC50 [3] was 2.38 nM.
Work on O=C(CC1CCCC1)Nc1ccc(NC(=O)NCc2cn3ccnc3cn2)cc1 [Example 681, 2-cyclopentyl-N-(4-{[(imidazo[1,2-a]pyrazin-6-ylmethyl)carbamoyl]amino}phenyl)acetamide] yielded an IC50 [1] of 145 nM, an IC50 [2] of 27.6 nM and an IC50 [3] of 2 nM.
Work on O=C(NCc1ccn2ccnc2c1)c1ccc(C2CCN(S(=O)(=O)c3ccccc3)CC2)cc1 [Example 682, N-(imidazo[1,2-a]pyridin-7-ylmethyl)-4-[1-(phenylsulfonyl)piperidin-4-yl]benzamide] yielded an IC50 [1] of 771 nM, an IC50 [2] of 607 nM and an IC50 [3] of 1.58 nM.
In the case of CC(C)S(=O)(=O)N1CCC(c2ccc(C(=O)NCc3ccn4ccnc4c3)cc2)CC1 [Example 683, N-(imidazo[1,2-a]pyridin-7-ylmethyl)-4-[1-(propan-2-ylsulfonyl)piperidin-4-yl]benzamide], the IC50 [1] is reported as 36.1 nM, the IC50 [2] is reported as 154 nM and the IC50 [3] is reported as 1.19 nM.
Compound O=C(NCc1ccn2ccnc2c1)c1ccc(C2CCN(S(=O)(=O)C3CC3)CC2)cc1 [Example 684, 4-[1-(cyclopropylsulfonyl)piperidin-4-yl]-N-(imidazo[1,2-a]pyridin-7-ylmethyl)benzamide] has an IC50 [1] of 320 nM, an IC50 [2] of 481 nM and an IC50 [3] of 1.34 nM.
